Type in all cases: in vivo
The subject of data set [1] is rice. Kind of data set: Test Example 4: effect on crop by soil treatment (symbol b). As to conditions: for Effect on crop grade, b: directly sowed rice plant: application herbicide amount 320 g/ha. The method in brief:
(§1)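 Crop seeds, among them rice, wheat, beet and rapeseed, were sown in sterilized diluvial soil and covered with about 1.5 cm of soil. Boxes were kept in a greenhouse at 25° C. to 30° C. for plant growth.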

Data set [2] deals with Abutilon theophrasti. Kind of data set: Test Example 5: herbicidal effect by foliage application, plastic box (symbol M). The note with it: 320 g/ha, 3 weeks after application. The method in brief: (§2)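 Sowing in sterilized diluvial soil, 14 days' greenhouse growth at 25° C. to 30° C., then uniform small-sprayer foliar application of aqueous emulsion dilution; plants scored three weeks afterwards.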

Data set [3] relates to transplanted rice plant. Put plainly: Test Example 1: effect on crop, application before weed generation in submerged conditions (symbol a). As to conditions: application herbicide amount 320 g/ha. In outline: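 Alluvial soil pots flooded to 4 cm water, sown with Echinochloa oryzacola, Scirpus juncoides and Monochoria vaginalis, then transplanted with 2.5 leaf stage rice seedlings; pre-emergence application. Greenhouse 25° C. to 30° C.; scored 0–5 by herbicidal ratio 3 weeks after application.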

Data set [4] concerns Amaranthus retroflexus. Kind of data set: Test Example 4: herbicidal effect by soil treatment (symbol N). The note with it: for Herbicidal effect grade, N: Amaranthus retroflexus: application herbicide amount 320 g/ha. In outline: (§3)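 Seeds were sown in sterilized diluvial soil, covered with about 1.5 cm of soil, and the soil surface was sprayed with a water-diluted emulsion of the compound at a predetermined rate. Plants grew in a greenhouse at 25° C. to 30° C.; effects were scored visually 3 weeks after application.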

Data set [5] has as its system Stellaria media. Put plainly: Test Example 4: herbicidal effect by soil treatment (symbol P). As to conditions: for Herbicidal effect grade, P: Stellaria media: application herbicide amount 320 g/ha. The method in brief: as §3
The subject of data set [6] is Digitaria ciliaris. Put plainly: Test Example 5: herbicidal effect by foliage application, plastic box (symbol F). As to conditions: 320 g/ha, 3 weeks after application. The method in brief:
as §2

The subject of data set [7] is beet. Kind of data set: Test Example 4: effect on crop by soil treatment (symbol f). The note with it: for Effect on crop grade, f: beet: application herbicide amount 320 g/ha. The method in brief:
as §1

The subject of data set [8] is Avena fatua. Kind of data set: Test Example 5: herbicidal effect by foliage application, plastic box (symbol I). The note with it: 320 g/ha, 3 weeks after application. The method in brief: as §2
Data set [9] deals with rice plant. Kind of data set: Test Example 5: effect on crop by foliage application, plastic box (symbol b). The note with it: 320 g/ha, 3 weeks after application. In outline:
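A greenhouse held between 25° C. and 30° C. was used to grow plants sown spot-wise, beneath ~1.5 cm of soil, in boxes of sterilized diluvial soil.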

Data set [10] concerns Monochoria vaginalis. Kind of data set: Test Example 2: herbicidal activity, application during weed generation in submerged conditions (symbol C). As to conditions: Table 23; application herbicide amount 320 g/ha; grade 0-5 by criteria of Test Example 1. The method in brief:
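Each pot contained alluvial soil under 4 cm of water with seeds of all three weeds sown together. Following growth at 25° C. to 30° C. to the one- to two-leaf stage, the floodwater received diluted emulsion at a predetermined amount; visual assessment followed at 3 weeks.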

Data set [11] deals with Stellaria media. Put plainly: Test Example 5: herbicidal effect by foliage application, plastic box (symbol P). As to conditions: 320 g/ha, 3 weeks after application. In outline: as §2
Data set [12] concerns Echinochloa crus-galli var. crus-galli. Put plainly: Test Example 4: herbicidal effect by soil treatment (symbol H). As to conditions: for Herbicidal effect grade, H: Echinochloa crus-galli var. crus-galli: application herbicide amount 320 g/ha. The method in brief: as §3
Data set [13] has as its system Setaria viridis. Put plainly: Test Example 5: herbicidal effect by foliage application, plastic box (symbol G). The note with it: 320 g/ha, 3 weeks after application. In outline:
as §2

For the compound `CC(CC1CC(OC(=O)COc2ccccc2)=C(c2c(C)cc(-n3cc(Cl)cn3)cc2C)C1=O)=NOCC(F)(F)F` (centres unmarked) [9-012], the “Effect on crop grade, b: directly sowed rice plant” value (“Effect on crop grade, b” for short) in [1] is recorded as 5 (Herbicidal ratio of 90% or more (almost completely withered)). Further, the “M: Abutilon theophrasti, herbicidal effect grade” value in data set [2] was 1 (Herbicidal ratio of 5% or higher and lower than 20%). In addition, the “a (transplanted rice plant) effect on crop grade” value in data set [3] is on record as 5 (Herbicidal ratio of 90% or more (almost completely withered)). Moreover, the “Herbicidal effect grade, N: Amaranthus retroflexus” value (from here on “Herbicidal effect grade, N”) in data set [4] was 0 (Herbicidal ratio of 5% or lower (almost no effect)). Further, the “Herbicidal effect grade, P: Stellaria media” value (from here on “Herbicidal effect grade, P”) in data set [5] was 0 (Herbicidal ratio of 5% or lower (almost no effect)). Moreover, the “F: Digitaria ciliaris, herbicidal effect grade” value in data set [6] is recorded as 5 (Herbicidal ratio of 90% or more (almost completely withered)). Further, the “Effect on crop grade, f: beet” value in data set [7] is reported as 0 (Herbicidal ratio of 5% or lower (almost no effect)). The “I: Avena fatua, herbicidal effect grade” value in data set [8] is 5 (Herbicidal ratio of 90% or more (almost completely withered)). For the same compound, the “b: directly sowed rice plant, effect on crop grade” value in [9] is on record as 5 (Herbicidal ratio of 90% or more (almost completely withered)). Also, the “Herbicidal effect grade, C: Monochoria vaginalis” value (shortened to “Herbicidal effect grade, C”) in data set [10] is 2 (Herbicidal ratio of 20% or higher and lower than 40%). For the same compound, in data set [11], the “P: Stellaria media, herbicidal effect grade” value is 4 (Herbicidal ratio of 70% or higher and lower than 90%). For the same compound, in data set [12], the “Herbicidal effect grade, H: Echinochloa crus-galli var. crus-galli” value (from here on “Herbicidal effect grade, H”) is recorded as 5 (Herbicidal ratio of 90% or more (almost completely withered)). In [13], the “G: Setaria viridis, herbicidal effect grade” value is listed as 5 (Herbicidal ratio of 90% or more (almost completely withered)).
In the case of `CC(CC1CC(O)=C(c2c(C)cc(-n3cc(Cl)cn3)cc2C)C1=O)=NOCC(F)(F)F` (centres unmarked) [9-010], the “Effect on crop grade, b” value in data set [1] is listed as 5 (Herbicidal ratio of 90% or more (almost completely withered)). Moreover, in data set [2], the “M: Abutilon theophrasti, herbicidal effect grade” value is 0 (Herbicidal ratio of 5% or lower (almost no effect)). Also, in data set [3], the “a (transplanted rice plant) effect on crop grade” value is 5 (Herbicidal ratio of 90% or more (almost completely withered)). The “Herbicidal effect grade, N” value in [4] is recorded as 0 (Herbicidal ratio of 5% or lower (almost no effect)). Moreover, the “Herbicidal effect grade, P” value in [5] is on record as 0 (Herbicidal ratio of 5% or lower (almost no effect)). The “F: Digitaria ciliaris, herbicidal effect grade” value in data set [6] is 5 (Herbicidal ratio of 90% or more (almost completely withered)). Besides, in data set [7], the “Effect on crop grade, f: beet” value is reported as 0 (Herbicidal ratio of 5% or lower (almost no effect)). Also, the “I: Avena fatua, herbicidal effect grade” value in data set [8] is 4 (Herbicidal ratio of 70% or higher and lower than 90%). For the same compound, the “b: directly sowed rice plant, effect on crop grade” value in data set [9] is 5 (Herbicidal ratio of 90% or more (almost completely withered)). Further, the “Herbicidal effect grade, C” value in data set [10] was 1 (Herbicidal ratio of 5% or higher and lower than 20%). For the same compound, the “P: Stellaria media, herbicidal effect grade” value in [11] was 3 (Herbicidal ratio of 40% or higher and lower than 70%). For the same compound, the “Herbicidal effect grade, H” value in [12] is recorded as 5 (Herbicidal ratio of 90% or more (almost completely withered)). Further, in [13], the “G: Setaria viridis, herbicidal effect grade” value is recorded as 5 (Herbicidal ratio of 90% or more (almost completely withered)).
On to `COCCON=C(C)CC1CC(O)=C(c2c(C)cc(-n3cc(Cl)cn3)cc2C)C1=O` (centres unmarked) [9-016], for which the “Effect on crop grade, b” value in data set [1] is reported as 5 (Herbicidal ratio of 90% or more (almost completely withered)). Also, the “M: Abutilon theophrasti, herbicidal effect grade” value in data set [2] was 0 (Herbicidal ratio of 5% or lower (almost no effect)). In addition, the “a (transplanted rice plant) effect on crop grade” value in data set [3] is 5 (Herbicidal ratio of 90% or more (almost completely withered)). In addition, the “Herbicidal effect grade, N” value in [4] is recorded as 0 (Herbicidal ratio of 5% or lower (almost no effect)). Moreover, the “Herbicidal effect grade, P” value in data set [5] is reported as 0 (Herbicidal ratio of 5% or lower (almost no effect)). In addition, the “F: Digitaria ciliaris, herbicidal effect grade” value in data set [6] is listed as 5 (Herbicidal ratio of 90% or more (almost completely withered)). In data set [7], the “Effect on crop grade, f: beet” value is given as 0 (Herbicidal ratio of 5% or lower (almost no effect)). In addition, the “I: Avena fatua, herbicidal effect grade” value in [8] is 5 (Herbicidal ratio of 90% or more (almost completely withered)). Moreover, in data set [9], the “b: directly sowed rice plant, effect on crop grade” value is recorded as 5 (Herbicidal ratio of 90% or more (almost completely withered)). Also, the “Herbicidal effect grade, C” value in data set [10] was 1 (Herbicidal ratio of 5% or higher and lower than 20%). The “P: Stellaria media, herbicidal effect grade” value in [11] is 3 (Herbicidal ratio of 40% or higher and lower than 70%). Moreover, the “Herbicidal effect grade, H” value in data set [12] is listed as 5 (Herbicidal ratio of 90% or more (almost completely withered)). The “G: Setaria viridis, herbicidal effect grade” value in data set [13] is on record as 5 (Herbicidal ratio of 90% or more (almost completely withered)).
Regarding `COC(=O)C(C(=O)C1CC1)C1CC(O)=C(c2c(C)cc(Br)cc2C)C1=O` (mixture of isomers) [10-002], the “Effect on crop grade, b” value in [1] is 4 (Herbicidal ratio of 70% or higher and lower than 90%). In data set [2], the “M: Abutilon theophrasti, herbicidal effect grade” value was 0 (Herbicidal ratio of 5% or lower (almost no effect)). Moreover, in data set [3], the “a (transplanted rice plant) effect on crop grade” value was 1 (Herbicidal ratio of 5% or higher and lower than 20%). Moreover, the “Herbicidal effect grade, N” value in [4] is 0 (Herbicidal ratio of 5% or lower (almost no effect)). Moreover, in [5], the “Herbicidal effect grade, P” value was 0 (Herbicidal ratio of 5% or lower (almost no effect)). For the same compound, the “F: Digitaria ciliaris, herbicidal effect grade” value in data set [6] was 5 (Herbicidal ratio of 90% or more (almost completely withered)). Further, in data set [7], the “Effect on crop grade, f: beet” value is given as 0 (Herbicidal ratio of 5% or lower (almost no effect)). Moreover, in data set [8], the “I: Avena fatua, herbicidal effect grade” value is given as 5 (Herbicidal ratio of 90% or more (almost completely withered)). In addition, the “b: directly sowed rice plant, effect on crop grade” value in data set [9] is 4 (Herbicidal ratio of 70% or higher and lower than 90%). Moreover, the “Herbicidal effect grade, C” value in data set [10] is on record as 0 (Herbicidal ratio of 5% or lower (almost no effect)). In addition, the “P: Stellaria media, herbicidal effect grade” value in [11] is given as 0 (Herbicidal ratio of 5% or lower (almost no effect)). Moreover, the “Herbicidal effect grade, H” value in data set [12] is 4 (Herbicidal ratio of 70% or higher and lower than 90%). Moreover, in data set [13], the “G: Setaria viridis, herbicidal effect grade” value is 5 (Herbicidal ratio of 90% or more (almost completely withered)).
As for `CON=C(CC1CC(O)=C(c2c(C)cc(C)cc2C)C1=O)c1ccc(F)cc1` (centres unmarked) [1-133], the “b: directly sowed rice plant, effect grade on crop” value in [1] (320 g/ha) is recorded as 0 (Herbicidal ratio of 5% or lower (almost no effect)). Moreover, in data set [2], the “M: Abutilon theophrasti, herbicidal effect (criteria 0-5)” value is recorded as 0 (Herbicidal ratio of 5% or lower (almost no effect)). In data set [3], the “Effect grade on crop, a: transplanted rice plant” value was 1 (Herbicidal ratio of 5% or higher and lower than 20%). Also, the “N: Amaranthus retroflexus, herbicidal effect grade” value in data set [4] (320 g/ha) is 0 (Herbicidal ratio of 5% or lower (almost no effect)). For the same compound, the “P: Stellaria media, herbicidal effect grade” value in data set [5] (320 g/ha) is on record as 0 (Herbicidal ratio of 5% or lower (almost no effect)). Besides, the “F: Digitaria ciliaris, herbicidal effect (criteria 0-5)” value in data set [6] is reported as 0 (Herbicidal ratio of 5% or lower (almost no effect)). Further, the “f: beet, effect grade on crop” value in [7] (320 g/ha) is on record as 0 (Herbicidal ratio of 5% or lower (almost no effect)). Further, in [8], the “I: Avena fatua, herbicidal effect (criteria 0-5)” value is 3 (Herbicidal ratio of 40% or higher and lower than 70%). The “b: directly sowed rice plant, effect on crop (criteria 0-5)” value in data set [9] is 1 (Herbicidal ratio of 5% or higher and lower than 20%). In addition, the “Herbicidal effect grade, C” value in data set [10] is 0 (Herbicidal ratio of 5% or lower (almost no effect)). Further, in data set [11], the “P: Stellaria media, herbicidal effect (criteria 0-5)” value was 3 (Herbicidal ratio of 40% or higher and lower than 70%). The “H: Echinochloa crus-galli var. crus-galli, herbicidal effect grade” value in data set [12] (320 g/ha) is 4 (Herbicidal ratio of 70% or higher and lower than 90%). Also, the “G: Setaria viridis, herbicidal effect (criteria 0-5)” value in data set [13] is 4 (Herbicidal ratio of 70% or higher and lower than 90%).

For the origin of these results see patent US11000033B2, “Ketone or oxime compound, and herbicide” (NISSAN CHEMICAL CORPORATION, priority 2014, dated 2021).
